Test results reported in the supplement of paper PMC10307832.

What was measured:
Test in all cases: relative viability (nuclei count vs DMSO), 5 days (fraction); higher = more cells survive
[1] = compound: CCC1=CN=CN=C1N2CCN(CC2)CC3=NC4=C(N3)C=C(C=C4)C(F)(F)F + CS(=O)(=O)N1CCN(Cc2cc3nc(-c4cccc5[nH]ncc45)nc(N4CCOCC4)c3s2)CC1 [Pictilisib] (partner 1 µM)
Procedure, shortened: (§1)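 Lung cancer cell lines were seeded in 1536-well plates and dosed by pin tool the next day, with either a single drug or a fixed anchor-drug dose combined with five library-drug doses (not always all listed) spaced in √10 steps. Five days later, one step fixed the cells and stained their nuclei (final 0.05% Triton X-100, 1% formaldehyde, 1 ug/ml Hoechst), and nuclei were counted on 4× images. Relative viability is the nuclei count in treated wells divided by the count in vehicle wells, and each value is the median of duplicate plates.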

[2] = compound: CCC1=CN=CN=C1N2CCN(CC2)CC3=NC4=C(N3)C=C(C=C4)C(F)(F)F + CC(=O)c1c(C)c2cnc(Nc3ccc(N4CCNCC4)cn3)nc2n(C2CCCC2)c1=O [Palbociclib] (partner 0.5 µM)
Procedure, shortened: as §1

[3] = compound: N=C1NC(=O)/C(=C/c2ccc(O)cc2)S1 [Mirin] + C[C@]1(O)C[C@@H](c2nc(-c3ccc4ccc(-c5ccccc5)nc4c3)c3c(N)nccn32)C1 [Linsitinib] (partner 1 µM)
Procedure, shortened: as §1

[4] = compound: N=C1NC(=O)/C(=C/c2ccc(O)cc2)S1 [Mirin] + CC1(C)CCC(c2ccc(Cl)cc2)=C(CN2CCN(c3ccc(C(=O)NS(=O)(=O)c4ccc(N[C@H](CCN5CCOCC5)CSc5ccccc5)c(S(=O)(=O)C(F)(F)F)c4)cc3)CC2)C1 [Navitoclax] (partner 0.5 µM)
Procedure, shortened: as §1

Cell Line	relative viability ([1]; first compound 0.04 µM)	relative viability ([1]; first compound 0.1265 µM)	relative viability ([1]; first compound 0.4 µM)	relative viability ([1]; first compound 1.265 µM)	relative viability ([1]; first compound 4 µM)	relative viability ([2]; first compound 0.04 µM)	relative viability ([2]; first compound 0.1265 µM)	relative viability ([2]; first compound 0.4 µM)	relative viability ([2]; first compound 1.265 µM)	relative viability ([2]; first compound 4 µM)	relative viability ([3]; first compound 0.25 µM)	relative viability ([3]; first compound 0.7906 µM)	relative viability ([3]; first compound 2.5 µM)	relative viability ([3]; first compound 7.906 µM)	relative viability ([3]; first compound 25 µM)	relative viability ([4]; first compound 0.25 µM)	relative viability ([4]; first compound 0.7906 µM)	relative viability ([4]; first compound 2.5 µM)	relative viability ([4]; first compound 7.906 µM)	relative viability ([4]; first compound 25 µM)
NCI-H1666	0.569	0.402	0.417	0.498	0.501	0.609	0.609	0.669	0.659	0.608	0.734	0.853	0.791	0.646	0.517	0.921	0.941	1.03	0.719	0.59
NCI-H2170	0.303	0.304	0.274	0.289	0.325	0.397	0.402	0.375	0.385	0.386	–	–	–	–	–	0.698	0.51	0.659	0.521	0.375
NCI-H522	–	–	–	–	–	1.02	1.11	0.956	0.818	0.916	–	–	–	–	–	–	–	–	–	–
LCLC-97TM1	0.181	0.198	0.181	0.204	0.214	0.196	0.2	0.228	0.282	0.196	0.174	0.166	0.177	0.143	0.141	0.314	0.515	0.511	0.194	0.288
NCI-H1299	0.819	0.728	0.972	0.752	0.673	–	–	–	–	–	0.984	0.966	0.978	0.879	1.2	0.998	1.1	1.09	1.03	1.2
NCI-H322M	0.581	0.484	0.507	0.381	0.524	0.455	0.452	0.514	0.489	0.521	0.891	1.08	0.976	1.04	0.651	1.26	1.28	1.25	1.22	1.31
NCI-H1395	0.59	0.553	0.619	0.572	0.646	0.598	0.596	0.637	–	0.665	1.13	–	1.07	1.05	0.901	1.24	–	1.12	1.04	1.09
NCI-H2009	0.821	0.824	0.826	0.514	0.544	0.195	0.238	0.184	0.15	0.0584	1.17	1.21	1.18	1.15	1.34	1.17	1.3	1.18	1.11	1.2
NCI-H1651	0.625	0.607	0.487	0.65	0.675	0.558	0.562	0.513	0.463	0.532	1.06	1.01	0.982	0.741	0.856	1.01	0.97	1.01	0.826	0.836
Calu-6	1.07	0.877	0.865	0.822	0.73	–	–	–	–	–	0.914	0.908	0.903	0.856	0.88	0.879	1	0.839	0.806	0.794
NCI-H1703	0.238	0.277	0.263	0.232	0.227	–	–	–	–	–	0.797	0.353	0.967	–	0.916	1.27	1.21	1.26	–	0.685
NCI-H1650	0.525	0.586	0.558	0.306	0.818	0.325	0.311	0.348	0.223	0.39	–	–	–	–	–	1.05	1.53	1.21	1.21	1.06
NCI-H2342	–	–	–	–	–	0.569	0.514	0.511	0.463	0.477	–	–	–	–	–	–	–	–	–	–
ChaGo-K-1	–	0.707	0.63	0.668	0.557	0.976	0.946	0.929	0.907	0.881	–	–	–	–	–	0.974	–	0.997	0.849	0.85
NCI-H650	0.875	0.82	0.983	0.736	0.841	0.318	0.344	0.292	0.276	0.313	0.942	–	0.941	–	0.956	–	–	–	–	–
NCI-H661	0.358	0.402	0.412	–	0.366	0.378	0.398	0.416	0.386	0.38	0.432	0.58	0.613	0.451	0.414	–	–	–	–	–
SW 900	–	–	–	–	–	0.463	0.497	0.412	–	0.556	–	–	–	–	–	–	–	–	–	–
ABC-1	0.587	0.955	0.69	0.665	0.646	–	–	0.543	0.628	0.547	0.771	0.93	0.773	1.04	0.455	–	–	–	–	–
NCI-H1648	–	–	–	–	–	0.235	–	–	0.296	0.303	–	–	–	–	–	–	–	–	–	–
IA-LM	0.409	0.33	0.323	0.325	0.3	–	–	–	–	–	0.754	0.584	0.789	–	0.87	0.835	0.899	0.705	0.498	0.752
A549	0.547	0.488	0.467	0.507	0.426	–	–	–	–	–	0.508	0.58	0.544	0.503	0.511	1.09	1.38	1.08	1.32	1.31
LCLC-103H	0.599	0.614	0.499	0.435	0.559	0.501	0.471	0.436	0.485	0.448	1.12	1.11	1.08	1.22	1.13	–	–	–	–	–
NCI-H358	0.4	0.282	0.349	0.289	0.359	0.135	0.136	0.121	0.128	0.141	0.734	0.719	0.836	0.57	0.373	–	–	–	–	–
